{
  "source": "patent US20190134153A1",
  "about": "“IMMUNOMODULATORY EFFECT OF INHALED KINASE INHIBITOR PEPTIDES IN LUNG” (MOERAE MATRIX, INC., priority 2017, published 2019)",
  "key": {"[1]": {"assay": "LPS challenge study in healthy smokers: safety and tolerability (adverse events)", "protocol": "Period/sequence effects were analyzed to determine potential impact of treatment order.\nFirst multi-day dosing in humans employed a single low dose of 2.25 mg, extrapolated from animal studies (37.5 μg/kg, based on 60 kg human).\nThe primary study endpoints were safety and tolerability following first repeat administration and induced sputum inflammatory biomarkers interleukin-6 (IL-6), interleukin-1β (IL-1β), interleukin-8 (IL-8) and tumor necrosis factor alpha (TNFα) following inhaled LPS (30 μg) challenge, day 5."}, "[2]": {"conditions": "inhaled, even at high doses"}, "[3]": {"conditions": "following repeat dosing"}, "[4]": {"system": "Rat bowel anastomosis", "conditions": "vs placebo; cited from earlier work"}, "[5]": {"assay": "in vitro", "conditions": "cells (cell type not stated)"}, "[6]": {"system": "Ca2+/calmodulin-dependent protein kinase II (CaMKII)", "conditions": "cited from earlier work"}, "[7]": {"system": "PKA", "conditions": "1 μM; cited from earlier work"}, "[8]": {"system": "PKC", "conditions": "1 μM; cited from earlier work"}, "[9]": {"biological_target": "CaMKIV (Homo sapiens, UniProt Q16566)", "sequence (Q16566 whole entry, species assumed)": "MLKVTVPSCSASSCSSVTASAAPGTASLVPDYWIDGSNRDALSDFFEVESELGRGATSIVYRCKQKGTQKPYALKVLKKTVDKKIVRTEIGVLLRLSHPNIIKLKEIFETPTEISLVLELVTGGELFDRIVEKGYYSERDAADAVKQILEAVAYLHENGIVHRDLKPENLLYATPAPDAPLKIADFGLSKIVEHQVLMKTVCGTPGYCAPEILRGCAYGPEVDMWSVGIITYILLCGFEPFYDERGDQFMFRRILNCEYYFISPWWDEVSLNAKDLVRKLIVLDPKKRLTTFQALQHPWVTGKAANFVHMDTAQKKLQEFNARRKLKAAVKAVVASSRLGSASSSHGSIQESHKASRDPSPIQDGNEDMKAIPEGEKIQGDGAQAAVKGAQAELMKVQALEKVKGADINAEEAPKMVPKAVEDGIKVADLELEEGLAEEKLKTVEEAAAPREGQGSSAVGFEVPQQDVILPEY", "conditions": "1 μM; cited from earlier work"}},
  "note": "pIC50: −log10 of the molar value. Where a SMILES comes first, the peptide text is derived from it.",
  "data": [
    {"molecule": "CC(C)C[C@H](NC(=O)[C@H](C)NC(=O)[C@H](CCCCN)NC(=O)[C@H](C)NC(=O)[C@H](CCCNC(=N)N)NC(=O)[C@H](C)NC(=O)[C@H](CCC(N)=O)NC(=O)[C@H](CCCNC(=N)N)NC(=O)[C@H](C)NC(=O)[C@H](C)NC(=O)[C@H](C)NC(=O)[C@H](CCCNC(=N)N)NC(=O)[C@H](C)NC(=O)[C@@H](N)Cc1ccc(O)cc1)C(=O)N[C@@H](C)C(=O)N[C@@H](CCCNC(=N)N)C(=O)N[C@@H](CCC(N)=O)C(=O)N[C@@H](CC(C)C)C(=O)NCC(=O)N[C@H](C(=O)N[C@@H](C)C(=O)N[C@@H](C)C(=O)O)C(C)C", "note": "[MMI-0100] (H-YARAAARQARAKALARQLGVAA-OH)", "values": [
      {"measurement": "Any AE leading to treatment D/C, Patients %", "setting": "[1]; N = 22", "value": "(0%)"},
      {"measurement": "Any AE leading to treatment D/C, Patients N", "setting": "[1]; N = 22", "value": 0},
      {"measurement": "Any TEAE, Patients %", "setting": "[1]; N = 22", "value": "(40.9%)"},
      {"measurement": "Any TEAE, Patients N", "setting": "[1]; N = 22", "value": 9},
      {"measurement": "Deaths, Patients %", "setting": "[1]; N = 22", "value": "(0%)"},
      {"measurement": "Deaths, Patients N", "setting": "[1]; N = 22", "value": 0},
      {"measurement": "Mild TEAE, Patients %", "setting": "[1]; N = 22", "value": "(27.3%)"},
      {"measurement": "Mild TEAE, Patients N", "setting": "[1]; N = 22", "value": 6},
      {"measurement": "Moderate TEAE, Patients %", "setting": "[1]; N = 22", "value": "(18.2%)"},
      {"measurement": "Moderate TEAE, Patients N", "setting": "[1]; N = 22", "value": 4},
      {"measurement": "Severe or life threatening TEAE, Patients %", "setting": "[1]; N = 22", "value": "(0%)"},
      {"measurement": "Severe or life threatening TEAE, Patients N", "setting": "[1]; N = 22", "value": 0},
      {"measurement": "Any serious treatment emergent adverse event, % of subjects", "setting": "[1]; Safety Population N = 22", "value": "(0.5%)"},
      {"measurement": "Any serious treatment emergent adverse event, subjects", "setting": "[1]; Safety Population N = 22", "value": 0},
      {"measurement": "Concussion (serious TEAE), % of subjects", "setting": "[1]; Safety Population N = 22", "value": "(0%)"},
      {"measurement": "Concussion (serious TEAE), subjects", "setting": "[1]; Safety Population N = 22", "value": 0},
      {"measurement": "Injury, poisoning and procedural complications (serious TEAE), % of subjects", "setting": "[1]; Safety Population N = 22", "value": "(0%)"},
      {"measurement": "Injury, poisoning and procedural complications (serious TEAE), subjects", "setting": "[1]; Safety Population N = 22", "value": 0},
      {"measurement": "Joint dislocation (serious TEAE), % of subjects", "setting": "[1]; Safety Population N = 22", "value": "(0%)"},
      {"measurement": "Joint dislocation (serious TEAE), subjects", "setting": "[1]; Safety Population N = 22", "value": 0},
      {"measurement": "Number of serious treatment emergent adverse events", "setting": "[1]; Safety Population N = 22", "value": 0},
      {"measurement": "safety and tolerability", "setting": "[1]; first repeat administration, 2.25 mg inhaled, 5 days", "value": "safe and well-tolerated"},
      {"measurement": "MMI-0100 plasma concentrations", "setting": "[2]", "value": "little to no detectable"},
      {"measurement": "effect on lung function (FEV1)", "setting": "[3]", "value": "no deleterious effect"},
      {"measurement": "healing (integrity of anastomosis)", "setting": "[4]", "value": "healing (integrity of anastomosis) unaffected"},
      {"measurement": "half-life", "setting": "[5]", "value": "~77", "unit": "h"}
    ]},
    {"molecule": "autocamtide-2 related inhibitory peptide [AIP]", "values": [
      {"measurement": "CaMKII activity", "setting": "[6]; 1 μM", "value": "inhibited completely"},
      {"measurement": "pIC50", "setting": "[6]; CaMKII", "value": 7.00},
      {"measurement": "PKA activity", "setting": "[7]", "value": "not affected"},
      {"measurement": "PKC activity", "setting": "[8]", "value": "not affected"},
      {"measurement": "CaMKIV activity", "setting": "[9]", "value": "not affected"}
    ]}
  ]
}
